# Data reported in patent publication US9974784B2, “Inhibitors of activin-like receptor kinases” (The Texas A & M University System, priority 2015, dated 2018).
# What was measured:
# [1] = tested on: BMP signaling; settings: pharmacological inhibition of BMP signaling; cited from earlier work
# [2] = target: T1, ALK2 (Homo sapiens, UniProt Q04771); assay: SDS and native polyacrylamide gel electrophoresis analysis of ALK2 destabilization; settings: SDS-PAGE / gel electrophoresis, FIG. 8, increasing concentrations of test compound vs control compound
# T1 sequence (Q04771 21-509): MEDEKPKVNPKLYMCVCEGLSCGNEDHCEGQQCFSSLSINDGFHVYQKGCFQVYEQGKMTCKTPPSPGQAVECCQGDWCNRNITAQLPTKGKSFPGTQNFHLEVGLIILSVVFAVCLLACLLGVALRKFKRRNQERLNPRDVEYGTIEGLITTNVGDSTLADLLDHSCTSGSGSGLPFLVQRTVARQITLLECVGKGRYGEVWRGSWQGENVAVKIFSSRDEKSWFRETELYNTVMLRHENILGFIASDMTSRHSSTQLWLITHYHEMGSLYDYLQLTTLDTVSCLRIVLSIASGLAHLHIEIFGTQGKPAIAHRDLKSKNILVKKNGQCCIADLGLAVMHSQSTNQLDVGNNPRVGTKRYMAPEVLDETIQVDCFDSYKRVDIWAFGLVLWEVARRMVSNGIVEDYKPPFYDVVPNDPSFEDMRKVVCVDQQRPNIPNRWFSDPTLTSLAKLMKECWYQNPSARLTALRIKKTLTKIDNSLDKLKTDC
# Method: Destabilizing effects of a compound identified by a method of the claimed invention, were observed by SDS and native polyacrylamide gel electrophoresis analyses (FIG. 8), and were confirmed by monitoring protein unfolding with a hydrophobic fluoroprobe (SYPRO orange) in 96-well plate format with a quantitative PCR instrument (Thermofluor assay). The allosteric inhibitor shifted the melting temperature of Dorsomorphin-stabilized ALK2 from approximately 55° C. down to 35° C. in a concentration dependent manner that correlated with concentration dependent inhibition of ALK2 kinase activity.
# The comparative stabilities of the kinase protein were tested at varying pH levels in the presence of compounds identified by the methods of the claimed invention. […] Thermofluor assays provide independent confirmation of the effect of decreasing pH on the stability (FIG. 10) and sensitivity to an allosteric destabilizer (FIG. 11) of the kinase protein. […] Hypoxic conditions typically occur in tissues that are faced with traumas such as those caused by surgery or injury.
# [3] = target: T1, ALK2; assay: screening assay for compounds that bind an allosteric site of ALK2 and destabilize the protein
# Source text: Screening assays were set up to identify compounds that were capable of binding to a specific location in ALK2. This location was a ring-shaped pocket that contains a single centrally located sidechain, that of a histidine in ALK1 and ALK2, and an aspartate in the other five receptor kinases of the family. Numerous compounds were docked in poses that wrap the scaffolds around the central “island” residue, with terminal groups oriented in a head-to-tail fashion. Covalent linkage of the juxtaposed groups to form macrocyclic compounds is likely feasible in many cases. Through reduction in the entropic cost of binding due to constraint of rotatable bonds, as well as other properties, macrocycles have become an attractive scaffold for medicinal chemists in modern drug discovery.
# According to a further embodiment of the invention, a screening assay is carried out to identify compounds that bind to an allosteric site of ALK2 and cause destabilization of the protein.
destabilization of ALK-2 [3],SMILES,also measured
cause destabilization of ALK-2,"Cc1nc(-c2cccc(S(=O)(=O)N3CCC(C(=O)NCCc4nc5ccccc5[nH]4)CC3)c2)no1 [compound 17, N-[2-(1H-1,3-benzodiazol-2-yl)ethyl]-1-[3-(5-methyl-1,2,4-oxadiazol-3-yl)benzenesulfonyl]piperidine-4-carboxamide]",–
cause destabilization of ALK-2,"Cc1nc(-c2cccc(S(=O)(=O)N3CCC(C(=O)Nc4cccc5c4CCCC5)CC3)c2)no1 [compound 19, 1-[3-(5-methyl-1,2,4-oxadiazol-3-yl)benzenesulfonyl]-N-(5,6,7,8-tetrahydronaphthalen-1-yl)piperidine-4-carboxamide]",–
cause destabilization of ALK-2,"Cc1nc(-c2cccc(N3CC(C(=O)N4CCN(Cc5ccc6c(c5)OCO6)CC4)CC3=O)c2)no1 (centres unmarked) [compound 20, 4-[4-(1,3-benzodioxol-5-ylmethyl)piperazine-1-carbonyl]-1-[3-(5-methyl-1,2,4-oxadiazol-3-yl)phenyl]pyrrolidin-2-one]",–

# Second part, the compound before the results:
SMILES,destabilization of ALK-2 [3],also measured
c1ccc2c(-c3cnn4cc(-c5ccc(N6CCNCC6)cc5)cnc34)ccnc2c1 [LDN-193189],–,effect on muscle [1]: leads to muscle wasting or cachexia
"Cc1onc(-c2ccccc2)c1C(=O)NCC1Cc2cccc(-c3ccccn3)c2O1 (centres unmarked) [compound 8, 5-methyl-3-phenyl-N-{[7-(2-pyridinyl)-2,3-dihydro-1-benzofuran-2-yl]methyl}-4-isoxazolecarboxamide]",–,destabilization of ALK2 receptor kinase [2]: destabilization of ALK2 receptor kinase
"Cc1cc(NS(=O)(=O)c2ccc3c(c2)C2C4CCC(C4)C2C(c2cccc(C(=O)O)c2)N3)no1 (centres unmarked) [compound 14, 3-{2-[(5-methyl-1,2-oxazol-3-yl)sulfamoyl]-5,6,6a,7,8,9,10,10a-octahydro-7,10-methanophenanthridin-6-yl}benzoic acid]",cause destabilization of ALK-2,–
"Cc1nc(NS(=O)(=O)c2ccc3c(c2)C2C4CCC(C4)C2C(c2cccc(C(=O)O)c2)N3)oc1C (centres unmarked) [compound 24, 3-{2-[(4,5-dimethyl-1,3-oxazol-2-yl)sulfamoyl]-5,6,6a,7,8,9,10,10a-octahydro-7,10-methanophenanthridin-6-yl}benzoic acid]",cause destabilization of ALK-2,–
"Cc1cccc(-c2cccc(NC(=O)C3CCCN(C(=O)c4ccnc(N)c4)C3)c2)c1 (centres unmarked) [compound 28, 1-(2-aminoisonicotinoyl)-N-(3′-methyl-3-biphenylyl)-3-piperidinecarboxamide]",cause destabilization of ALK-2,–
